Tests used:
[1] = system: K. pneumoniae ATCC 700603; test: Agar diffusion antibiogram (Example 1); assay type: cell-based, Klebsiella pneumoniae; settings: by order of Table 1 K. pneumoniae ATCC 700603; concentration 200 μg/ml
Protocol: (§1) From the stock cultures, which were maintained at −80±5° C., revitalization of the strains (TSB, TSA and blood agar cultures, incubation at 37° C., 24 h) and preparation of working cultures (maintenance at 5° C.±3° C.) was carried out.
(§2) The study of microbial activity of the products was performed by the agar diffusion method (antibiograms). Preliminary experiments were performed to adjust the concentration of each strain to obtain a homogeneous field, and select the appropriate culture medium (in this case, Mueller Hinton agar). Whenever possible, large Petri plates (135 mm diameter) were used, but when the halo was too large, several plates of 90 mm diameter were used to test all the products. […] Addition of 1-2 ml of the corresponding dilution to sterile Petri plates (depending on size) and then pouring Mueller Hinton agar, tempered to 45° C. Allowing the agar to solidify at room temperature and then practicing wells in which the products to be tested will be placed. • Preparing the test substances in the appropriate concentration (suspension of 1 mg/ml in sterile water and serial dilutions). Placing 50 μl of the chosen concentration in each well (a previous study was done to determine which concentration provided the most appropriate halos in each strain). […] Then the inhibition halos observed in each well were measured and gathered in Table 2 below.

K. pneumoniae (BLEE+) = test: Agar diffusion antibiogram (Example 1); assay type: cell-based, Klebsiella pneumoniae; settings: by order of Table 1 K. pneumoniae BLEE+ clinical isolate; concentration 200 μg/ml
Protocol: as §1, §2

Ps. aeruginosa PAO1 [2] = test: Agar diffusion antibiogram (Example 2); assay type: cell-based, Pseudomonas aeruginosa; settings: concentration 50 μg/ml
Protocol: as §1
(§3) The study of microbial activity of the products was performed by the agar diffusion method (antibiograms). Preliminary experiments were performed to adjust the concentration of each strain to obtain a homogeneous field, and the appropriate culture medium (in this case, Mueller Hinton agar) was selected. Whenever possible, large Petri plates (diameter of 135 mm) were used, but when the halo was too large, several plates of 90 mm diameter were used to test all the products. […] Addition of 1-2 ml of the corresponding dilution to sterile Petri plates (depending on size) and then pouring Mueller Hinton agar, tempered to 45° C. Allowing the agar to solidify at room temperature and then practicing wells in which the products will be placed to be tested. • Preparing the test substances in the appropriate concentration (suspension of 1 mg/ml in sterile water and serial dilutions). Placing 50 μl of the chosen concentration in each well (a previous study was done to see which concentration provided the most appropriate halos in each strain). As a positive control Penicillin G (at the same concentration) was used. • Incubation of the plates at 3±1° C. for 24 hours. Then the inhibition halos observed in each well were measured and gathered in Table 4 below.

Ps. aeruginosa OPRD [3] = test: Agar diffusion antibiogram (Example 2); assay type: cell-based, Pseudomonas aeruginosa; settings: concentration 50 μg/ml
Protocol: as §1, §3

Ps. aeruginosa MEXR [4] = test: Agar diffusion antibiogram (Example 2); assay type: cell-based, Pseudomonas aeruginosa; settings: concentration 50 μg/ml
Protocol: as §1, §3

Ps. aeruginosa DACB = test: Agar diffusion antibiogram (Example 2); assay type: cell-based, Pseudomonas aeruginosa; settings: concentration 50 μg/ml
Protocol: as §1, §3

Ps. aeruginosa VIM2 [5] = test: Agar diffusion antibiogram (Example 2); assay type: cell-based, Pseudomonas aeruginosa; settings: concentration 50 μg/ml
Protocol: as §1, §3

E. coli W207 BLEE+ [6] = test: Agar diffusion antibiogram (Example 1); assay type: cell-based, Escherichia coli; settings: by order of Table 1 E. coli W207 BLEE+; concentration 50 μg/ml
Protocol: as §1
(§4) The study of microbial activity of the products was performed by the agar diffusion method (antibiograms). Preliminary experiments were performed to adjust the concentration of each strain to obtain a homogeneous field, and select the appropriate culture medium (in this case, Mueller Hinton agar). Whenever possible, large Petri plates (135 mm diameter) were used, but when the halo was too large, several plates of 90 mm diameter were used to test all the products. […] Addition of 1-2 ml of the corresponding dilution to sterile Petri plates (depending on size) and then pouring Mueller Hinton agar, tempered to 45° C. Allowing the agar to solidify at room temperature and then practicing wells in which the products to be tested will be placed. • Preparing the test substances in the appropriate concentration (suspension of 1 mg/ml in sterile water and serial dilutions). Placing 50 μl of the chosen concentration in each well (a previous study was done to determine which concentration provided the most appropriate halos in each strain). As a positive control, Penicillin G (at the same concentration) was used. • Incubation of the plates at 37±1° C. for 24 hours. Then the inhibition halos observed in each well were measured and gathered in Table 2 below.

E. coli H24 BLEE+ [7] = test: Agar diffusion antibiogram (Example 1); assay type: cell-based, Escherichia coli; settings: by order of Table 1 E. coli H24 BLEE+; concentration 50 μg/ml
Protocol: as §1, §4

E. coli C93 BLEE+ [8] = test: Agar diffusion antibiogram (Example 1); assay type: cell-based, Escherichia coli; settings: by order of Table 1 E. coli C93 BLEE+; concentration 50 μg/ml
Protocol: as §1, §4

E. coli ATCC 8739 = test: Agar diffusion antibiogram (Example 1); assay type: cell-based, Escherichia coli; settings: concentration 50 μg/ml
Protocol: as §1, §4

E. coli not BLEE = test: Agar diffusion antibiogram (Example 1); assay type: cell-based, Escherichia coli; settings: concentration 50 μg/ml
Protocol: as §1, §4

Ps. aeruginosa PAO1 [9] = test: Agar diffusion antibiogram (Example 1); assay type: cell-based, Pseudomonas aeruginosa; settings: by order of Table 1 Ps. aeruginosa PAO1; concentration 50 μg/ml
Protocol: as §1, §4

Ps. aeruginosa OPRD [10] = test: Agar diffusion antibiogram (Example 1); assay type: cell-based, Pseudomonas aeruginosa; settings: by order of Table 1 Ps. aeruginosa OPRD; concentration 50 μg/ml
Protocol: as §1, §4

Ps. aeruginosa MEXR [11] = test: Agar diffusion antibiogram (Example 1); assay type: cell-based, Pseudomonas aeruginosa; settings: by order of Table 1 Ps. aeruginosa MEXR; concentration 50 μg/ml
Protocol: as §1, §4

Ps. aeruginosa VIM2 [12] = test: Agar diffusion antibiogram (Example 1); assay type: cell-based, Pseudomonas aeruginosa; settings: by order of Table 1 Ps. aeruginosa VIM2; concentration 50 μg/ml
Protocol: as §1, §4

C. freundii H44 BLEE+ [13] = test: Agar diffusion antibiogram (Example 2); assay type: cell-based, Citrobacter freundii; settings: concentration 50 μg/ml
Protocol: as §1
as §3, with “As a positive control Penicillin G (at the same concentration) was used. • Incubation of the plates at 3±1° C. for 24 hours.” left out

[14] = system: K. pneumoniae ATCC 700603; test: Agar diffusion antibiogram (Example 2); assay type: cell-based, Klebsiella pneumoniae; settings: concentration 200 μg/ml
Protocol: as §1
as §3, with “As a positive control Penicillin G (at the same concentration) was used. • Incubation of the plates at 3±1° C. for 24 hours.” left out

K. pneumoniae BLEE+ = test: Agar diffusion antibiogram (Example 2); assay type: cell-based, Klebsiella pneumoniae; settings: concentration 200 μg/ml
Protocol: as §1
as §3, with “As a positive control Penicillin G (at the same concentration) was used. • Incubation of the plates at 3±1° C. for 24 hours.” left out

C. freundii H44 BLEE+ [15] = test: Agar diffusion antibiogram (Example 1); assay type: cell-based, Citrobacter freundii; settings: by order of Table 1 C. freundii H44 BLEE+; concentration 50 μg/ml
Protocol: as §1, §2

E. coli W207 BLEE+ [16] = test: Agar diffusion antibiogram (Example 2); assay type: cell-based, Escherichia coli; settings: concentration 50 μg/ml
Protocol: as §1, §3

E. coli H24 BLEE+ [17] = test: Agar diffusion antibiogram (Example 2); assay type: cell-based, Escherichia coli; settings: concentration 50 μg/ml
Protocol: as §1, §3

E. coli AC8 BLEE+ = test: Agar diffusion antibiogram (Example 2); assay type: cell-based, Escherichia coli; settings: concentration 50 μg/ml
Protocol: as §1, §3

E. coli C93 BLEE+ [18] = test: Agar diffusion antibiogram (Example 2); assay type: cell-based, Escherichia coli; settings: concentration 50 μg/ml
Protocol: as §1, §3

CC1(C)S[C@@H]2[C@H](NC(=O)Cc3ccccc3)C(=O)N2[C@H]1C(=O)O [PG, penicillin G]
Inhibition halos [1]: <1 mm
Inhibition halos (K. pneumoniae (BLEE+)): <1 mm
Inhibition halos (Ps. aeruginosa PAO1 [2]): <1 mm
Inhibition halos (Ps. aeruginosa OPRD [3]): <1 mm
Inhibition halos (Ps. aeruginosa MEXR [4]): <1 mm
Inhibition halos (Ps. aeruginosa DACB): 9 mm
Inhibition halos (Ps. aeruginosa VIM2 [5]): <1 mm
Inhibition halos (E. coli W207 BLEE+ [6]): <1 mm
Inhibition halos (E. coli H24 BLEE+ [7]): <1 mm
Inhibition halos (E. coli C93 BLEE+ [8]): <1 mm
Inhibition halos (E. coli ATCC 8739): 21 mm
Inhibition halos (E. coli not BLEE): 21 mm
Inhibition halos (Ps. aeruginosa PAO1 [9]): <1 mm
Inhibition halos (Ps. aeruginosa OPRD [10]): <1 mm
Inhibition halos (Ps. aeruginosa MEXR [11]): <1 mm
Inhibition halos (Ps. aeruginosa VIM2 [12]): <1 mm
Inhibition halos (C. freundii H44 BLEE+ [13]): <1 mm
Inhibition halos [14]: <1 mm
Inhibition halos (K. pneumoniae BLEE+): <1 mm
Inhibition halos (C. freundii H44 BLEE+ [15]): <1 mm
Inhibition halos (E. coli W207 BLEE+ [16]): <1 mm
Inhibition halos (E. coli H24 BLEE+ [17]): <1 mm
Inhibition halos (E. coli AC8 BLEE+): <1 mm
Inhibition halos (E. coli C93 BLEE+ [18]): <1 mm
